Assays:
[1] = dissolution in water when preparing the liquid dosing formulation; format: physicochemical; settings: for 200 mg/kg dosing preparation
Procedure: Thus three animals were administered 200 mg/kg of each the acid and base formulations in liquid or suspension, respectively, to determine if the dosing and/or variability would improve. […] The solution, and suspension were prepared in water with 0.25% carboxymethylcellulose to facilitate fluidity during dosing. Samples were collected at 30 minutes, 1, 2, 5 and 24 hours after administration of […].

[2] = bioequivalence study in rats: d-tetrandrine plasma concentration after oral gavage of free base versus hydrochloride salt (HPLC); format: in vivo, Sprague-Dawley rats
Procedure: A bioequivalence study in rats was conducted to compare the rate and extent to which the active drug ingredient (d-tetrandrine) is absorbed from a free base versus a hydrochloride salt. The drug ingredients were formulated in capsules by the University of Kentucky Center for Pharmaceutical Sciences and Technology (CPST) to administer equivalent amounts of d-tetrandrine to rats via oral gavage. Dosing syringes, capsule filling apparatus and mini capsules (size 9) appropriate for dosing rats were obtained from Torpac (Fairfield, N.J.).
A single rat per time point (destructive sampling) was used to obtain as much blood volume as possible for the HPLC analysis. This was necessary to accommodate analysis with the current UV based HPLC assay that had extensively been used at CBA Pharma. The JPLC analyses were performed at the CBA Pharma facilities, by a scientist with extensive experience in plasma based assay. Results were provided to a second scientist for evaluation and modeling.
Given the limited information on rat d-tetrandrine pharmacokinetics (PK), the studies were conducted in stages. A preliminary study (pilot) to identify the dose required for adequate assay sensitivity was first conducted using approximately 25 mg/kg and approximately 120 mg/kg doses administered in capsules. Four animals per dose level per formulation (acid or base) were administered drug. Sprague-Dawley rats were used for these studies and were obtained from Harlan Laboratories at least one weak prior to the experiments to allow animals to recover from shipping stress and to acclimate. Animals weighed 200-250 g at the time of the experiments. Animals were euthanized one hour after drug administration and blood was collected in EDTA containing tubes via cardiac puncture and rapidly centrifuged to separate the plasma. Typically, enough plasma was obtained to afford duplicate sample analysis. The plasma was stored at −80° C. until it was transported to CBA Pharma facilities in Styrofoam containers containing dry ice.
However, multiple capsules required for dosing higher doses were contributing to the pharmacokinetic variability observed in initial pilot studies. Thus in subsequent studies, younger and smaller animals were administered doses of approximately 150 mg/kg, and blood samples were obtained two hours after drug administration. These smaller animals were more difficult to dose because the size of the tablet. Three animals from the “acid” group and two animals from the “base” group were excluded based on the technician's judgment that some tissue damage had been done to the animals during the gavage dosing. […]
In some cases the plasma concentrations could not be determined due to extremely high interfering peaks. […]

## COc1ccc2cc1Oc1ccc(cc1)C[C@H]1c3cc(c(OC)cc3CCN1C)Oc1c(OC)c(OC)cc3c1[C@H](C2)N(C)CC3 [d-tetrandrine]
[1]
  solubility in water: did not dissolve in water
[2]; free base formulations compared with di-acid salt formulations
  rate of absorption into the bloodstream, free base versus di-acid salt: substantially as rapidly as formulations of the di-acid salt
[2]; rats, 100 mg/kg, liquid/suspension, oral gavage, sampled up to 48 hours, FIG. 4
  d-tetrandrine plasma concentrations relative to the limit of the HPLC assay: well above the qualification limit of the HPLC assay for 48 hours
[2]; rats, 100 mg/kg, oral gavage, p>0.05, FIG. 6
  AUC estimates (Bailer method), acid versus base formulation: no statistical or otherwise significant difference
[2]; rats, higher dose (approximately 230 mg/kg capsules, 200 mg/kg liquid/suspension), oral gavage, Student t-test, two-tailed, p>0.05, FIG. 2
  plasma concentrations and dose normalized plasma concentrations, comparison of d-tetrandrine and d-tetrandrine-2HCl formulations: no statistical difference
